Laboratory results reported in patent publication US12427192B2, “Water soluble adjuvant and composition containing same” (Sumitomo Pharma Co., Ltd., priority 2019, dated 2025).

Assays:
[1] = test system: HLA-A*02:01 transgenic mouse; assay: Test 12: in vivo adjuvant activity, cocktail vaccine g (emulsified composition 2), IFNγ ELISPOT; settings: added to cocktail vaccine g (emulsified composition 2); 0.04 nmol or 0.4 nmol per body, twice; FIG. 12 and 13
Experimental: (§1) Evaluation of In Vivo Adjuvant Activity in HLA-A*02:01 Transgenic Mouse
The in vivo adjuvant activity of the compound of Example 1 was evaluated in the following procedure. To a cocktail vaccine (emulsified composition 2) comprising Compound of formula 4 prepared in Reference example 8 and Peptide SEQ ID No. 3 prepared in Reference example 3 (hereinafter, referred to as “cocktail vaccine g”) was added the compound prepared in Example 1 to prepare a vaccine. The vaccine was administered to a HLA-A*02:01 transgenic mouse, and the adjuvant activity of the vaccine was evaluated by the method of testing antigen-specific CTL induction.
(§2) For example, the above emulsified composition 2 was prepared as follows. 95.8% (w/w) of medium-chain triglyceride (MYGLYOL 812), 3% (w/w) of PEG-30 dipolyhydroxy stearate, and 1.2% (w/w) of polysorbate 80 were mixed to prepare an oil-phase mixture. The amount of the preparation was adjusted as appropriate. Compound of formula 4 and Peptide SEQ ID No. 3 were mixed with pH 2.5 buffer (10 mM tartaric acid, 10% trehalose) to adjust each concentration to 3 mg/mL and 2.25 mg/mL, respectively. The prepared peptide dilution was mixed with an equal volume of the oil-phase mixture to give an emulsified product, cocktail vaccine g. […] Then, after removal of the supernatant from the wells, stained spots on the ELISPOT plate were counted.

[2] = test system: HLA-A*02:01 transgenic mouse; assay: Test 13: in vivo adjuvant activity, cocktail vaccine h (emulsified composition 3), IFNγ ELISPOT; settings: added to cocktail vaccine h (emulsified composition 3); 0.04 nmol per body, twice; FIG. 14
Experimental: as §1
The in vivo adjuvant activity of the compound of Example 1 was evaluated in the following procedure. To a cocktail vaccine (emulsified composition 3) comprising Compound of formula 4 prepared in Reference example 8 and Peptide SEQ ID No. 3 prepared in Reference example 3 (hereinafter, referred to as “cocktail vaccine h”) was added the compound prepared in Example 1 to prepare a vaccine. The vaccine was administered to a HLA-A*02:01 transgenic mouse, and the adjuvant activity of the vaccine was evaluated by the method of testing antigen-specific CTL induction.
as §2, with “composition 3” for “composition 2”, “of isopropyl myristate,” for “of medium-chain triglyceride (MYGLYOL 812),”, “vaccine h.” for “vaccine g.”

[3] = test system: HLA-A*24:02 transgenic mouse; assay: Test 20: in vivo adjuvant activity, vaccine o (Compound of formula 5), IFNγ ELISPOT; settings: added to vaccine o; 0.4 nmol per body, twice; FIG. 25
Experimental: Evaluation of In Vivo Adjuvant Activity in HLA-A*24:02 Transgenic Mouse
The in vivo adjuvant activity of the compound of Example 1 was evaluated in the following procedure. To a vaccine prepared by mixing Compound of formula 5 prepared in Reference example 22 with a preliminarily-emulsified composition (hereinafter, referred to as “vaccine o”) was added the compound prepared in Example 1 to prepare a vaccine. The vaccine was administered to a HLA-A*24:02 transgenic mouse, and the adjuvant activity of the vaccine was evaluated by the method of testing antigen-specific CTL induction.
Specifically, Compound of formula 5 was dissolved in DMSO, and then diluted with water for injection to concentrations of Compound of formula 5 of 3 mg/mL. The prepared compound dilution was mixed with an equal volume of the preliminary emulsified composition prepared like Test 4 to give an emulsified product, vaccine o. Vaccine o was injected to mice intradermally at the tail base area in an amount for administering 300 μg of Compound of formula 5 per body. […] Then, after removal of the supernatant from the wells, stained spots on the ELISPOT plate were counted.

CCCCCNc1nc(N)nc(C)c1Cc1ccc(CN(C)CCOCCOCCOCCOCCO)cc1OC [Example 1, 1-(4-{[2-amino-4-methyl-6-(pentylamino)pyrimidin-5-yl]methyl}-3-methoxyphenyl)-2-methyl-5,8,11,14-tetraoxa-2-azahexadecan-16-ol·trifluoroacetate]
more: CTL counts responsive to Peptide SEQ ID No. 1 or SEQ ID No. 4 compared with adding no compound [1] | CTL counts responsive to Peptide SEQ ID No. 1 compared with adding no compound [2] | CTL counts responsive to Peptide SEQ ID No. 2 compared with adding no compound [3]
